From US11000033B2, “Ketone or oxime compound, and herbicide” (NISSAN CHEMICAL CORPORATION, priority 2014, dated 2021)

What was measured:
rice = assay: Test Example 4: effect on crop by soil treatment (symbol b); format: in vivo; settings: application herbicide amount 320 g/ha
Outline: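 Plants are raised in a greenhouse (25° C. to 30° C.) from spot-sown seed, which sits under about 1.5 cm of sterilized diluvial soil in a box shared with weed species.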

Amaranthus retroflexus = assay: Test Example 5: herbicidal effect by foliage application, plastic box (symbol N); format: in vivo; settings: 320 g/ha, 3 weeks after application
Outline: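 Leaf-applied emulsion, water-diluted to a preset herbicide dose, on two-week-old seedlings raised in a 25° C. to 30° C. greenhouse; injury rated at 3 weeks using earlier criteria.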

[1] = tested on: Echinochloa oryzacola Vasing.; assay: Test Example 2: herbicidal activity, application during weed generation in submerged conditions (symbol A); format: in vivo; settings: Table 23; application herbicide amount 320 g/ha; grade 0-5 by criteria of Test Example 1
Outline: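 Treatment timing was the one- to two-leaf stage, with diluted emulsifiable compound dropped onto the paddy water (depth 4 cm) over alluvial soil. All three species grew from a mixed sowing in a 25° C. to 30° C. greenhouse. Injury was judged by eye 3 weeks on.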

Row | SMILES | melting point [°C] | b: directly sowed rice plant, effect on crop grade (rice) | N: Amaranthus retroflexus, herbicidal effect grade (Amaranthus retroflexus) | Herbicidal effect grade, A: Echinochloa oryzacola Vasing. [1]
1 | CCC(=O)CCC1CC(OC)=C(c2c(C)cc(C)cc2C)C1=O (stereo not drawn) [5-002] | – | 0 (Herbicidal ratio of 5% or lower (almost no effect)) | 0 (Herbicidal ratio of 5% or lower (almost no effect)) | 0 (Herbicidal ratio of 5% or lower (almost no effect))
2 | CON=C(C)CC1CC(O)=C(c2c(C)cc(-c3ccccc3)cc2C)C1=O (stereo not drawn) [6-015] | 167 to 169 | 5 (Herbicidal ratio of 90% or more (almost completely withered)) | 2 (Herbicidal ratio of 20% or higher and lower than 40%) | 5 (Herbicidal ratio of 90% or more (almost completely withered))
3 | CON=C(C)CC1CC(O)=C(c2c(C)cc(C)cc2OC)C1=O (stereo not drawn) [6-037, 3-hydroxy-2-(2-methoxy-4,6-dimethylphenyl)-5-{2-(methoxyimino)propyl}cyclopent-2-enone] | – | 5 (Herbicidal ratio of 90% or more (almost completely withered)) | 5 (Herbicidal ratio of 90% or more (almost completely withered)) | 5 (Herbicidal ratio of 90% or more (almost completely withered))
4 | CON=C(C)CC1CC(O)=C(c2c(C)cc(C)cc2Br)C1=O (stereo not drawn) [6-038] | – | 5 (Herbicidal ratio of 90% or more (almost completely withered)) | 5 (Herbicidal ratio of 90% or more (almost completely withered)) | 4 (Herbicidal ratio of 70% or higher and lower than 90%)

Further lines, with some results ahead:

Row | melting point [°C] | SMILES | b: directly sowed rice plant, effect on crop grade (rice) | N: Amaranthus retroflexus, herbicidal effect grade (Amaranthus retroflexus) | Herbicidal effect grade, A: Echinochloa oryzacola Vasing. [1]
5 | 151 to 153 | CCc1cc(Br)cc(C)c1C1=C(O)CC(CC(C)=NOC)C1=O (stereo not drawn) [6-001] | 5 (Herbicidal ratio of 90% or more (almost completely withered)) | 0 (Herbicidal ratio of 5% or lower (almost no effect)) | 4 (Herbicidal ratio of 70% or higher and lower than 90%)
6 | 184 to 188 | CCc1cc(Br)cc(C)c1C1=C(O)CC(C(C(=O)OC)C(C)=NOC)C1=O (stereo not drawn) [6-002] | 5 (Herbicidal ratio of 90% or more (almost completely withered)) | 0 (Herbicidal ratio of 5% or lower (almost no effect)) | 0 (Herbicidal ratio of 5% or lower (almost no effect))
7 | 164 to 166 | CON=C(C)CC1CC(O)=C(c2c(C)cc(Br)cc2C)C1=O (stereo not drawn) [6-003] | 5 (Herbicidal ratio of 90% or more (almost completely withered)) | 0 (Herbicidal ratio of 5% or lower (almost no effect)) | 4 (Herbicidal ratio of 70% or higher and lower than 90%)
8 | 122 to 125 | CCc1cc(C)cc(C)c1C1=C(O)CC(CC(C)=NOC)C1=O (stereo not drawn) [6-007] | 5 (Herbicidal ratio of 90% or more (almost completely withered)) | 0 (Herbicidal ratio of 5% or lower (almost no effect)) | 5 (Herbicidal ratio of 90% or more (almost completely withered))
9 | 165 to 172 | CON=C(C)CC1CC(O)=C(c2c(C)cc(OCC(F)(F)F)cc2C)C1=O (stereo not drawn) [6-049] | 5 (Herbicidal ratio of 90% or more (almost completely withered)) | 4 (Herbicidal ratio of 70% or higher and lower than 90%) | 5 (Herbicidal ratio of 90% or more (almost completely withered))
